Reference: patent US20110306638A1, “BENZISOXAZOLE PIPERIDINYL DERIVATIVES, PHARMACEUTICAL COMPOSITIONS COMPRISING THE DERIVATIVES AND THEIR USE” (NHWA PHARMA. CORPORATION, priority 2008, published 2011)
Like-named read-outs stand apart in the source and are kept apart here. Marks after values point to notes of the source that are not given here.

Legend:
5-HT2A receptor = biological target: T1, 5-HT2A receptor (Homo sapiens, UniProt P28223); assay: In-vitro competitive binding to 5-HT2A receptor, [3H]-Ketanserin, transformed HEK293 cells; details: for IC50 / Ki: affinity to 5-HT2A receptor, concentration gradient test; for inhibition at 10 µM: read-out: 5-HT2A [3H]-Ketanserin inhibition percentage
T1 construct: expressed in transfected cells; host or cells: HEK293
Experimental: All test samples were dissolved in DMSO at a concentration of 0.01 mol/L, and then diluted with deionized water to 100 umol/L.
HEK293 cells were transformed with plasmid carriers containing the gene coding for 5-HT2A receptor protein by using calcium phosphate transformation. Stable cell strains which could stably express 5-HT2A receptor protein were obtained from the transformed cells by cultivating in a culture media containing G418, selecting monoclones of the cell and performing radioactive ligand binding assay.
Beckman LS 6500 Scintillation Counter.
HEK-293 cells were infected with recombined viruses containing various genes described above. […] Cells were centrifuged at 1000 rpm for 5 min Culture media was discarded, and cell bodies were collected and stored at −20° C. in a freezer. The cell bodies were resuspended with Tris-HCl reaction buffer during assay.
After incubation at 37° C. for 15 min, the reaction mixture was immediately transferred into ice bath to terminate the reaction; the reaction mixture was quickly filtered through GF/C glass cellulose filter on a Millipore cell sample collector, and was then washed with eluting solution (50 mM Tris-HCl, PH 7.7, 3 ml×3) and dried in a microwave for 8-9 min. The filter was transferred into a 0.5 ml centrifuge tube, and 500 μl lipid soluble scintillation fluid was added. The centrifuge tube was allowed to stand in darkness for more than 30 min. Radioactivity was determined by counting Inhibition percentage of each compound on isotope ligand binding was calculated according to the following equation:
inhibition percentage(I %)=cpm of overall binding tube−cpm of compound/cpm of overall binding tube−cpm of nonspecific binding tube×100%.
Each compound was tested in two duplicate test tubes and two separate tests were performed.

[1] = biological target: T2, 5-HT reuptake by brain synapses (Rattus norvegicus, UniProt P31652); assay: [3H]5-HT reuptake test in rat brain synapses; type: biochemical; details: for inhibition at 10 µM: final concentration 10 umol/L, rat brain synapses, read-out: 5-HTU [3H] 5-HT reuptake inhibition percentage Mean
T2 construct: forehead cortex was obtained for [^3H]5-HT, [^3H]NA reuptake test; from tissue; host or cells: rat (SD) forebrain cortex synaptosomes
Experimental: The method was as follows:
Male SD rats were killed by cervical dislocation, heads were immediately cut and brains were obtained and put on ice, related brain tissues were dissected (forehead cortex was obtained for [^3H]5-HT, [^3H]NA reuptake test, corpus striatum was obtained for [^3H]DA reuptake).
After the sample was weighed, 10 folds (V/W) ice cold 0.32 mol/L sucrose solution was added.
According to [a. […] 5-HT was added and after incubation in water bath at 37° C. for 10 min, the reaction mixture was immediately taken out of the water bath and 2 ml ice cold 150 mmol/L Tris-HCl was added to terminate the reaction. The sample was collected on a round glass fiber filter by vacuum filtration and washed three times with 3 ml ice cold Tris-HCl buffer. The filter membrane was removed, dried in a far-infrared oven for 15 min, then transferred into a EP tube, in which 1.5 ml scintillation fluid was added, left overnight and detected by a scintillation counter. The test sample was not added into solvent controlled overall binding tube or non-specific binding tube. 50 μl solvent was added into the overall binding tube, and in [^3H] 5-HT reuptake test, 600 μmol/L cocaine was added into the non-specific binding tube.

Kunming mice [2] = assay: Acetic acid-induced abdominal writhing test in mice; type: in vivo
Experimental: Kunming mice, SPF KM mice purchased from […] SLAC LABORATORY ANIMAL CO. LTD and kept in normal environment.
The compounds were dissolved in water for injection at a concentration of 4 mg/ml, 2 mg/ml and 1 mg/ml and were given intragastrically to animals.
(§1) Three different doses (10, 20, and 40 mg/kg) were administered to the test groups.
Aspirin was used as a positive control and acetic acid writhing test was used.
30 mice (half male and half female) weighing 18-23 g were divided into five groups, including negative control group, positive control group, low dose group, medium dose group and high dose group:
Mice in test group received test drug (10 mg/kg, 20 mg/kg, 40 mg/kg) via intragastric administration. Negative control group received physiological saline (20 ml/kg) via oral administration. Positive control group received aspirin (200 mg/kg) via oral administration. One hour later, each group received 0.7% acetic acid 10 ml/kg intraperitoneally. Five minutes later, the number of writhes was counted within the subsequent 15 min period; inhibition percentage of writhing response in each test group was calculated by the following equation: […]

Kunming mice [3] = assay: Hot-plate test in mice; type: in vivo; details: 1 h post dose
Experimental: Kunming mice, SPF KM mice were purchased from […] SLAC LABORATORY ANIMAL CO. LTD and kept in normal environment.
The compounds were dissolved in water for injection at a concentration of 4 mg/ml, 2 mg/ml and 1 mg/ml and were given subcutaneously to animals.
as §1
Morphine was used as a positive control and hot plate test was used.
30-40 mice (half male and half female) weighed from 18 to 23 gram were used. First, each mouse was placed on a hot plat at 55° C. to determine basic pain threshold for 2-3 times. Those animals with basic pain threshold of 5-30 s were qualified, unqualified mice were not used. 30 qualified mice were divided into five groups, including negative control group, positive control group, low-dose group, medium-dose group and high-dose group:
Mice in test groups received test sample solution (10 mg/kg, 20 mg/kg, 40 mg/kg) via subcutaneous injection in the neck. Positive control group received subcutaneous injection of morphine (2 mg/kg). One hour later, pain threshold values were determined for mice in each group as post-drug pain threshold. Percentage increase in pain threshold was calculated according to the following equation: […]

mice = assay: Sedative effects in mice (spontaneous activities); type: in vivo; set-up: unit not given here; details: single dose 20 mg/kg
Experimental: Spontaneous activities of the mice were recorded by alternating current tube, Sedative effects were tested after single dose (20 mg/kg).

[4] = biological target: opioid receptor subtype μ (Homo sapiens, UniProt P35372); assay: Competitive binding to opioid receptor subtype μ, [3H]Diprenorphine; details: tested concentration 10^−5 mol/L; read-out: μ inhibition percentage of competitive binding
Experimental: (§2) The respective test compounds were added to the sample tube (final concentration of 10^−5M), incubated at 37° C. for 30 min and placed in ice bath to terminate the reaction. The reaction mixture was filtered through GF/C (Whatman) glass fiber filter by vacuum filtration on a Millipore sample collector. The filter was washed three times with 50 mM Tris-HCl (pH7.4), each with 4 ml; dried and transferred into a 0.5 ml Eppendorf tube, in which 0.5 ml lipophilic scintillation fluid was added. Radioactivity was detected by a LS6500 scintillation counter. Each concentration had three duplicate test tubes and each separate test was repeated 3 to 4 times.
(§3) Specific binding CMP value for each sample tube=overall binding CPM value for each sample tube−CPM value of non-specific binding tube.
(§4) [Inhibition percentage of competitive binding between the test compound and different opioid receptor subtypes (%)=(100%−specific binding (CPM value)of sample tube/specific binding(CPM value)of solvent group×100%)]
(§5) Average was taken for each test drug from three duplicate tubes; each test was repeated two or more times.

[5] = biological target: opioid receptor subtype δ (Homo sapiens, UniProt P41143); assay: Competitive binding to opioid receptor subtype δ, [3H]Diprenorphine; details: tested concentration 10^−5 mol/L; read-out: δ inhibition percentage of competitive binding
Experimental: as §2, §3, §4
Average was taken for each test drug from three duplicate tubes; each test was repeated two or more times. Data were presented as mean±SE and statistical comparison was made by ANOVA.

[6] = biological target: opioid receptor subtype κ (Homo sapiens, UniProt P41145); assay: Competitive binding to opioid receptor subtype κ, [3H]Diprenorphine; details: tested concentration 10^−5 mol/L; read-out: κ inhibition percentage of competitive binding
Experimental: as §2, §3, §4, §5

[7] = 10 mg/kg intragastric administration
[8] = 20 mg/kg intragastric administration
[9] = 40 mg/kg intragastric administration

IC50 (5-HT2A receptor) | Ki (5-HT2A receptor) | inhibition at 10 µM (5-HT2A receptor; final concentration 10 umol/L) | inhibition at 10 µM [1] | inhibition at 10 µM [4] | inhibition at 10 µM [5] | inhibition at 10 µM [6] | inhibitory activity on 5-HT2A (in words) (5-HT2A receptor; compared with Aripiprazole) | Compound | Inhibition percentage of writhing response (Kunming mice [2]; [7]) | Inhibition percentage of writhing response (Kunming mice [2]; [8]) | Inhibition percentage of writhing response (Kunming mice [2]; [9]) | Percentage increase in pain threshold (Kunming mice [3]; 10 mg/kg S.c.) | Percentage increase in pain threshold (Kunming mice [3]; 20 mg/kg S.c.) | Percentage increase in pain threshold (Kunming mice [3]; 40 mg/kg S.c.) | Sedative effect (mice) | inhibitory activity on 5-HT reuptake (in words) ([1]; at 10 μmol/L, compared with Dutoxetine) | inhibition at 10 µM (5-HT2A receptor)
3.99 nM | 2.69 nM | 99.1% | 86% | 59.3 ± 0.7% | 0% | 44.1 ± 0.2% |  | Fc1ccc2c(C3CCN(CCCCn4cnc5ccc(F)cc54)CC3)noc2c1 [III-2, 6-fluoro-3-(1-(4-(6-fluoro-1H-benzo[d]imidazol-1-yl)butyl)piperidin-4-yl)benzo[d]isoxazole] | 97.61* % | 100.0** % | 100.0** % | 92.55* % | 172.2* % | 97.22% | 64** |  | 
3.09 nM | 2.06 nM | 99.7% | 88.3% | 41.9 ± 0.5% | 0% | 7 ± 0.6% | potent inhibitory activities | N#Cc1ccc2cnn(CCCCN3CCC(c4noc5cc(F)ccc45)CC3)c2c1 [II-14, 1-(4-(4-(6-fluorobenzo[d]isoxazol-3-yl)piperidin-1-yl)butyl)-1H-indazole-6-carbonitrile] | 77.70* % | 69.03% | 85.66** % |  |  |  | 20 | potent inhibitory activities | 

Compound | IC50 (5-HT2A receptor) | Ki (5-HT2A receptor) | inhibition at 10 µM (5-HT2A receptor; final concentration 10 umol/L) | inhibition at 10 µM [1] | inhibition at 10 µM [4] | inhibition at 10 µM [5] | inhibition at 10 µM [6] | inhibitory activity on 5-HT2A (in words) (5-HT2A receptor; compared with Aripiprazole) | Inhibition percentage of writhing response (Kunming mice [2]; [7]) | Inhibition percentage of writhing response (Kunming mice [2]; [8]) | Inhibition percentage of writhing response (Kunming mice [2]; [9]) | Percentage increase in pain threshold (Kunming mice [3]; 10 mg/kg S.c.) | Percentage increase in pain threshold (Kunming mice [3]; 20 mg/kg S.c.) | Percentage increase in pain threshold (Kunming mice [3]; 40 mg/kg S.c.) | Sedative effect (mice) | inhibitory activity on 5-HT reuptake (in words) ([1]; at 10 μmol/L, compared with Dutoxetine) | inhibition at 10 µM (5-HT2A receptor)
Fc1ccc2c(C3CCN(CCCOn4nnc5ccc(Cl)cc54)CC3)noc2c1 [IV-4, 3-(1-(3-(6-chloro-1H-benzo[d][1,2,3]triazol-1-yloxy)propyl)piperidin-4-yl)-6-fluorobenzo[d]isoxazole] |  |  |  |  | 34.3 ± 1.3% | 0% | 37.3 ± 1.7% |  | 88.33% | 99.44% | 97.78% | 51.63% | 79.36* % | 89.96* % | 70.8* |  | 97.4%
